System: PIK (PI4K; phosphatidylinositol 4-kinase)
Assay: radiometric PtdInsP formation from […]-ATP, Lineweaver-Burk
Format: biochemical, Mus musculus
Conditions: co-substrate 32P-ATP; 25 °C; 10 min; cell homogenate; without added c-Fos

For PtdIns, the Km was 254 µM.
